Reference: US20230218632A1, “CYCLIC SULFONAMIDE DERIVATIVES AS TRAP1 MODULATORS AND USES THEREOF” (Amathus Therapeutics, Inc., priority 2020, published 2023)

Molecular target: T1, TRAP1 enzyme (Homo sapiens, UniProt Q12931)
T1 sequence (Q12931 60-704): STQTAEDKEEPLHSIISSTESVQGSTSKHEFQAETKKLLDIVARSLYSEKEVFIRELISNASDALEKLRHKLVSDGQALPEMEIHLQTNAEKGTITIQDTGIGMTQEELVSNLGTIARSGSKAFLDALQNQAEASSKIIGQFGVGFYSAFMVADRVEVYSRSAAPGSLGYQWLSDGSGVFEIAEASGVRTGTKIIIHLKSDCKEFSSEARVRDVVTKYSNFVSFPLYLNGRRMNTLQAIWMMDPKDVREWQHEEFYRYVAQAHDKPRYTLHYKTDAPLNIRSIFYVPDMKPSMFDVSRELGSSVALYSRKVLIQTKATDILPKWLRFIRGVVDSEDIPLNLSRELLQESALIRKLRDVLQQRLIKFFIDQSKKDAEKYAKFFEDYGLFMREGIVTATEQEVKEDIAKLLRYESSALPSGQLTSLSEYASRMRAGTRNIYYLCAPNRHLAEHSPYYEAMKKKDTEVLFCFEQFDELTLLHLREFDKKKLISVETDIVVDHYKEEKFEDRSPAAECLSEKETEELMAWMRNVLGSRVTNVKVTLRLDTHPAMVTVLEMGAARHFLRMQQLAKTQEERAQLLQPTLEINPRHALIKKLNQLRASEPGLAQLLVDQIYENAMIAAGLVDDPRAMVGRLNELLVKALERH
Assay: ADP Glo assay (ATPase activity of TRAP1)
Type: biochemical
Settings: for EC50: 150 nM Trap1, 20 µM ATP, concentration for half maximal activation, read-out: ADP GLO DRC: GeoMean EC50; for Emax: read-out: ADP GLO DRC: Mean Emax
Protocol: Potency of test compounds to modulate the ATPase activity of TRAP1 enzyme was evaluated using ADP Glo assay. The assay is based on quantification of the ADP generated from ATP in the ATPase reaction. The assay is performed in two steps; first, after the ATPase reaction, an equal volume of ADP-Glo™ Reagent is added to terminate the ATPase reaction and deplete the remaining ATP. Second, the Kinase Detection Reagent is added to simultaneously convert ADP to ATP and allow the newly synthesized ATP to be measured using a luciferase/luciferin reaction.
All the assays were carried out in a 384-well Proxiplate. The buffer used was 25 mM Pipes pH-7.5, 40 mM KCl, 0.05 mM MgCl2, 0.025 % BSA, 0.316 mM EGTA, 0.003% Empigen, 0.01% Igepal. 150 nM Trap1 enzyme was incubated with various concentrations of the test compound (0.79 µM - 100 µM) at 37° C. for 30 mins (except in blank wells). 20 µM ATP was added to each well to start the reaction. The plate was spun for 1 min at 1200 rpm and then incubated at 37° C. for 60 mins. 5 µl of ADP Glo reagent was added to all the wells and spun the plate for 1 min at 1200 rpm and kept it on a shaker at ambient temperature for 60 mins. 10 µl of kinase detection mix was added to all the wells and the plate was read for Luminescence at 495 nm. The amount of ADP released was estimated from ATP/ADP standard curve generated at the same experimental conditions. Emax (Maximal percent activation) and EC50 (concentration for half maximal activation ) were estimated by fitting the dose response data to a sigmoidal curve fitting equation using Graphpad Prism software V. 8.

Structure (SMILES)	EC50	Emax (maximal percent activation)	ADP GLO DRC: Mean Emax (maximal percent activation)
Cc1ncoc1C(=O)Nc1ccc2c(c1)S(=O)(=O)N(c1ccc(C(F)(F)F)cc1)CCO2 [Compound 1190, N-(1,1-Dioxido-2-(4-(Trifluoromethyl)Phenyl)-3,4-Dihydro-2H-benzo[b][1,4,5]Oxathiazepin-8-yl)-4-Methyloxazole-5-Carboxamide]	< 20 µM	150 to 200%	–
Cc1ccncc1C(=O)Nc1ccc2c(c1)S(=O)(=O)N(c1ccc(Cl)cc1)CCO2 [Compound 1209, N-(2-(4-chlorophenyl)-1,1-Dioxido-3,4-Dihydro-2H-Benzo[b][1,4,5] Oxathiazepin-8-yl)-4-Methylnicotinamide]	30 to 100 µM	150 to 200%	–
Cc1ncoc1C(=O)Nc1ccc2c(c1)S(=O)(=O)N(c1ccc(Cl)cc1)CCO2 [Compound 1210, N-(2-(4-chlorophenyl)-1,1-Dioxido-3,4-Dihydro-2H-Benzo[b][1,4,5]Oxathiazepin-8-yl)-4-Methyloxazole-5-Carboxamide]	30 to 100 µM	> 200%	–
Cc1ccncc1C(=O)Nc1ccc2c(c1)S(=O)(=O)N(c1ccc(C(F)(F)F)cc1)CCO2 [Compound 1212, N-(1,1-Dioxido-2-(4-(Trifluoromethyl)Phenyl)-3,4-Dihydro-2H-Benzo[b][1,4,5]Oxathiazepin-8-yl)-4-Methylnicotinamide]	20 to 30 µM	150 to 200%	–
Cc1nc(C)c(C(=O)Nc2ccc3c(c2)S(=O)(=O)N(c2ccc(C(F)(F)F)cc2)CCO3)o1 [Compound 1974, N-(1,1-Dioxido-2-(4-(Trifluoromethyl)Phenyl)-3,4-Dihydro-2H-Benzo[b][1,4,5]Oxathiazepin-8-yl)-2,4-Dimethyloxazole-5-Carboxamide]	20 to 30 µM	150 to 200%	–
Cc1ocnc1C(=O)Nc1ccc2c(c1)S(=O)(=O)N(c1ccc(C(F)(F)F)cc1)CCO2 [Compound 1975, N-(1,1-Dioxido-2-(4-(Trifluoromethyl)Phenyl)-3,4-Dihydro-2H-Benzo[b][1,4,5]Oxathiazepin-8-yl)-5-Methyloxazole-4-Carboxamide]	< 20 µM	129 to 149%	–
O=C(Nc1ccc2c(c1)S(=O)(=O)N(c1ccc(C(F)(F)F)cc1)CCO2)c1cocn1 [Compound 1976, N-(1,1-Dioxido-2-(4-(Trifluoromethyl)Phenyl)-3,4-Dihydro-2H-Benzo[b][1,4,5]Oxathiazepin-8-yl)Oxazole-4-Carboxamide]	30 to 100 µM	150 to 200%	–
Cc1ncoc1C(=O)Nc1ccc2c(c1)S(=O)(=O)N(c1ccc(C(F)(F)F)cc1)CCCO2 [Compound 1989, N-(1,1-Dioxido-2-(4-(Trifluoromethyl) Phenyl)-2,3,4,5-Tetrahydrobenzo[b][1,4,5]Oxathiazocin-9-yl)-4-Methyloxazole-5-Carboxamide]	30 to 100 µM	> 200%	–
Cc1nc(C(=O)Nc2ccc3c(c2)S(=O)(=O)N(c2ccc(C(F)(F)F)cc2)CCO3)co1 [Compound 1992, N-(1,1-Dioxido-2-(4-(trifluoromethyl)Phenyl)-3,4-Dihydro-2H-Benzo[b][1,4,5]Oxathiazepin-8-yl)-2-Methyloxazole-4-Carboxamide]	20 to 30 µM	150 to 200%	–
O=C(Nc1ccc2c(c1)S(=O)(=O)N(c1ccc(C(F)(F)F)cc1)CCO2)c1cnco1 [Compound 1994, n-(1,1-Dioxido-2-(4-(Trifluoromethyl) Phenyl)-3,4-Dihydro-2H-Benzo[b][1,4,5]Oxathiazepin-8-yl)Oxazole-5-Carboxamide]	30 to 100 µM	> 200%	–
Cc1ncsc1C(=O)Nc1ccc2c(c1)S(=O)(=O)N(c1ccc(C(F)(F)F)cc1)CCO2 [Compound 2058, N-(1,1-Dioxido-2-(4-(Trifluoromethyl)Phenyl)-3,4-Dihydro-2H-Benzo[b][1,4,5]Oxathiazepin-8-yl)-4-Methylthiazole-5-Carboxamide]	< 20 µM	150 to 200%	–
O=C(Nc1ccc2c(c1)S(=O)(=O)N(c1ccc(C(F)(F)F)cc1)CCO2)c1cnc[nH]1 [Compound 2075, N-(1,1-Dioxido-2-(4-(Trifluoromethyl) Phenyl)-3,4-Dihydro-2H-Benzo [b] [1,4,5] Oxathiazepin-8-yl)-1H-Imidazole-5-Carboxamide]	20 to 30 µM	150 to 200%	–
CC(C)c1ncsc1C(=O)Nc1ccc2c(c1)S(=O)(=O)N(c1ccc(C(F)(F)F)cc1)CCO2 [Compound 2080, N-(1,1-Dioxido-2-(4-(Trifluoromethyl)Phenyl)-3,4-Dihydro-2H-Benzo[b][1,4,5]Oxathiazepin-8-yl)-4-Isopropylthiazole-5-Carboxamide]	20 to 30 µM	129 to 149%	–
CC(C)c1scnc1C(=O)Nc1ccc2c(c1)S(=O)(=O)N(c1ccc(C(F)(F)F)cc1)CCO2 [Compound 2085, N-(1,1-Dioxido-2-(4-(Trifluoromethyl)phenyl)-3,4-Dihydro-2H-Benzo[b][1,4,5]Oxathiazepin-8-yl)-5-Isopropylthiazole-4-Carboxamide]	30 to 100 µM	150 to 200%	–
Cn1ccnc1C(=O)Nc1ccc2c(c1)S(=O)(=O)N(c1ccc(C(F)(F)F)cc1)CCO2 [Compound 2090, N-(1,1-Dioxido-2-(4-(Trifluoromethyl)Phenyl)-3,4-Dihydro-2H-Benzo[b][1,4,5]Oxathiazepin-8-yl)-1-Methyl-1H-Imidazole-2-Carboxamide]	< 20 µM	129 to 149%	–
Cc1ccccc1N1CCOc2ccc(NC(=O)c3ncoc3C)cc2S1(=O)=O [Compound 2096, N-(1,1-dioxido-2-(o-tolyl)-3,4-dihydro-2H-benzo[b][1,4,5]oxathiazepin-8-yl)-5-methyloxazole-4-carboxamide]	30 to 100 µM	150 to 200%	–
Cc1ocnc1C(=O)Nc1ccc2c(c1)S(=O)(=O)N(c1ccccc1)CCO2 [Compound 2135, N-(1,1-dioxido-2-phenyl-3,4-dihydro-2H-benzo[b][1,4,5]oxathiazepin-8-yl)-5-methyloxazole-4-carboxamide]	30 to 100 µM	150 to 200%	–
COc1ccc(N2CCOc3ccc(NC(=O)c4ncoc4C)cc3S2(=O)=O)cc1 [Compound 2167, N-(2-(4-methoxyphenyl)-1,1-dioxido-3,4-dihydro-2H-benzo[b][1,4,5]oxathiazepin-8-yl)-5-methyloxazole-4-carboxamide]	30 to 100 µM	150 to 200%	–
Cc1cc(C(=O)Nc2ccc3c(c2)S(=O)(=O)N(c2ccc(C(F)(F)F)cc2)CCO3)ccn1 [Compound 2172]	20 to 30 µM	150 to 200%	–
Cc1cc(C(=O)Nc2ccc3c(c2)S(=O)(=O)N(c2ccc(C(F)(F)F)cc2)CCO3)cc(C)n1 [Compound 2173]	< 20 µM	–	B (150-200%, inclusive)
Cc1ccc(C(=O)Nc2ccc3c(c2)S(=O)(=O)N(c2ccc(C(F)(F)F)cc2)CCO3)cn1 [Compound 2174]	20 to 30 µM	129 to 149%	–
O=C(Nc1ccc2c(c1)S(=O)(=O)N(c1ccc(C(F)(F)F)cc1)CCO2)c1ccncn1 [Compound 2175]	< 20 µM	129 to 149%	–
O=C(Nc1ccc2c(c1)S(=O)(=O)N(c1ccc(C(F)(F)F)cc1)CCO2)c1cnn2c1CCC2 [Compound 2179]	20 to 30 µM	150 to 200%	–
O=C(Nc1ccc2c(c1)S(=O)(=O)N(c1ccc(C(F)(F)F)cc1)CCO2)c1cncs1 [Compound 2180]	20 to 30 µM	150 to 200%	–
Cc1noc(C)c1C(=O)Nc1ccc2c(c1)S(=O)(=O)N(c1ccc(C(F)(F)F)cc1)CCO2 [Compound 2181]	< 20 µM	129 to 149%	–
O=C(Nc1ccc2c(c1)S(=O)(=O)N(c1ccc(C(F)(F)F)cc1)CCO2)c1cscn1 [Compound 2184]	< 20 µM	129 to 149%	–
O=C(Nc1ccc2c(c1)S(=O)(=O)N(c1ccc(C(F)(F)F)cc1)CCO2)c1cc[nH]c(=O)c1 [Compound 2187]	30 to 100 µM	> 200%	–
O=C(Nc1ccc2c(c1)S(=O)(=O)N(c1ccc(C(F)(F)F)cc1)CCO2)c1cc(=O)cco1 [Compound 2190]	30 to 100 µM	> 200%	–
Cc1cncc(C(=O)Nc2ccc3c(c2)S(=O)(=O)N(c2ccc(C(F)(F)F)cc2)CCO3)c1 [Compound 2191]	< 20 µM	150 to 200%	–
